Test results from the supplement of paper PMC10307832.

How the values were obtained:
Assay in all cases: relative viability (nuclei count vs DMSO), 5 days (fraction); higher = more cells survive
UMC-11 = conditions: first compound 8 µM
Procedure, shortened: (§1)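 Relative viability was taken as the ratio of nuclei in treated wells to nuclei in vehicle wells. Lung cancer cell lines in 1536-well plates received compounds by pin tool one day after seeding, either one drug alone or a fixed anchor-drug dose plus five library-drug doses (not always all listed) in √10 steps. Nuclei were counted on 4× images after 5 days of treatment, and values are medians of duplicate plates.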

NCI-H2009 = system: NCI-H2009
Procedure, shortened: as §1

SK-LU-1 = system: SK-LU-1
Procedure, shortened: as §1

NCI-H1650 = system: NCI-H1650
Procedure, shortened: as §1

NCI-H322M = system: NCI-H322M
Procedure, shortened: as §1

NCI-H2087 = system: NCI-H2087
Procedure, shortened: as §1

NCI-H2126 = system: NCI-H2126
Procedure, shortened: as §1

ChaGo-K-1 = system: ChaGo-K-1
Procedure, shortened: as §1

BEN = system: BEN
Procedure, shortened: as §1

A-427 = system: A-427
Procedure, shortened: as §1

NCI-H441 = system: NCI-H441
Procedure, shortened: as §1

EKVX = system: EKVX
Procedure, shortened: as §1

NCI-H1755 = system: NCI-H1755
Procedure, shortened: as §1

`C=C1C(=O)O[C@@H](CCCCCCCC)[C@@H]1C(=O)O` [C-75] + Nc1ncn([C@H]2C[C@H](O)[C@@H](CO)O2)c(=O)n1 [Decitabine] (partner 2 µM) showed a relative viability (UMC-11) of 0.434, a relative viability (NCI-H2009; first compound 0.08 µM) of 0.37 and a relative viability (NCI-H2009; first compound 0.253 µM) of 0.393. The relative viability (NCI-H2009; first compound 0.8 µM) was 0.327, the relative viability (NCI-H2009; first compound 2.53 µM) was 0.314 and the relative viability (NCI-H2009; first compound 8 µM) was 0.338. The relative viability (SK-LU-1; first compound 0.08 µM) was 0.64, the relative viability (SK-LU-1; first compound 0.253 µM) was 0.588 and the relative viability (SK-LU-1; first compound 0.8 µM) was 0.616. It also gave a relative viability (SK-LU-1; first compound 2.53 µM) of 0.532, a relative viability (SK-LU-1; first compound 8 µM) of 0.467 and a relative viability (NCI-H1650; first compound 0.08 µM) of 0.362. For the same compound, the relative viability (NCI-H1650; first compound 0.253 µM) was 0.384, the relative viability (NCI-H1650; first compound 0.8 µM) was 0.453 and the relative viability (NCI-H1650; first compound 8 µM) was 0.387. It also gave a relative viability (NCI-H322M; first compound 0.08 µM) of 0.693, a relative viability (NCI-H322M; first compound 0.253 µM) of 0.782 and a relative viability (NCI-H322M; first compound 0.8 µM) of 0.604. For the same compound, the relative viability (NCI-H322M; first compound 8 µM) was 0.66, the relative viability (NCI-H2087; first compound 0.08 µM) was 0.281 and the relative viability (NCI-H2087; first compound 0.253 µM) was 0.269. It also gave a relative viability (NCI-H2087; first compound 0.8 µM) of 0.35, a relative viability (NCI-H2087; first compound 2.53 µM) of 0.217 and a relative viability (NCI-H2087; first compound 8 µM) of 0.231. For the same compound, the relative viability (NCI-H2126; first compound 0.08 µM) was 0.598, the relative viability (NCI-H2126; first compound 0.253 µM) was 0.617 and the relative viability (NCI-H2126; first compound 0.8 µM) was 0.609. It also gave a relative viability (NCI-H2126; first compound 2.53 µM) of 0.561, a relative viability (NCI-H2126; first compound 8 µM) of 0.534 and a relative viability (ChaGo-K-1; first compound 0.08 µM) of 0.505. It also gave a relative viability (ChaGo-K-1; first compound 0.253 µM) of 0.504, a relative viability (ChaGo-K-1; first compound 0.8 µM) of 0.503 and a relative viability (ChaGo-K-1; first compound 2.53 µM) of 0.423. It also gave a relative viability (ChaGo-K-1; first compound 8 µM) of 0.552, a relative viability (BEN; first compound 0.08 µM) of 0.764 and a relative viability (BEN; first compound 0.253 µM) of 0.733. For the same compound, the relative viability (BEN; first compound 0.8 µM) was 0.654, the relative viability (BEN; first compound 2.53 µM) was 0.738 and the relative viability (BEN; first compound 8 µM) was 0.713. For the same compound, the relative viability (A-427; first compound 0.08 µM) was 0.607, the relative viability (A-427; first compound 0.253 µM) was 0.533 and the relative viability (A-427; first compound 0.8 µM) was 0.487. It also gave a relative viability (A-427; first compound 2.53 µM) of 0.428, a relative viability (A-427; first compound 8 µM) of 0.512 and a relative viability (NCI-H441; first compound 0.08 µM) of 0.299. The relative viability (NCI-H441; first compound 0.253 µM) was 0.23, the relative viability (NCI-H441; first compound 0.8 µM) was 0.287 and the relative viability (NCI-H441; first compound 8 µM) was 0.212. It also gave a relative viability (EKVX; first compound 0.08 µM) of 0.399, a relative viability (EKVX; first compound 0.253 µM) of 0.397 and a relative viability (EKVX; first compound 0.8 µM) of 0.336. The relative viability (EKVX; first compound 8 µM) was 0.325, the relative viability (NCI-H1755; first compound 0.08 µM) was 0.683 and the relative viability (NCI-H1755; first compound 0.253 µM) was 0.713. The relative viability (NCI-H1755; first compound 0.8 µM) was 0.684, the relative viability (NCI-H1755; first compound 2.53 µM) was 0.646 and the relative viability (NCI-H1755; first compound 8 µM) was 0.681.
